Test results as given in PubChem BioAssay AID248 (DTP/NCI, 2004).
Where “and” joins values, the source holds several entries; their conditions need not be identical. Equal values may be shown once. Toxic doses and inconclusive results are not listed. Rule as the data show it: active = T/C of 150% or more; inactive = T/C below 125%.

Test system: L1210 leukemia ip in BDF1 mice, survival T/C
Experiment: NCI In Vivo Anticancer Drug Screen. Data for tumor model L1210 Leukemia (intraperitoneal) in B6D2F1 (BDF1) mice
Details: endpoint: mean survival time, higher = longer survival
How it was run: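 Transplantable tumor model; survival measured in treated vs vehicle control mice. Value = treated/control.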

[1] = dose: 100.0 mg/kg/injection, schedule: Q01DX001 (ip), vehicle: saline
[2] = dose: 100.0 mg/kg/injection, schedule: Q01DX009 (ip), vehicle: saline
[3] = dose: 100.0 mg/kg/injection, schedule: Q04DX003 (ip), vehicle: saline
[4] = dose: 200.0 mg/kg/injection, schedule: Q01DX001 (ip), vehicle: saline
[5] = dose: 200.0 mg/kg/injection, schedule: Q01DX009 (ip), vehicle: saline
[6] = dose: 200.0 mg/kg/injection, schedule: Q04DX003 (ip), vehicle: saline
[7] = dose: 400.0 mg/kg/injection, schedule: Q01DX001 (ip), vehicle: saline
[8] = dose: 400.0 mg/kg/injection, schedule: Q01DX009 (ip), vehicle: saline
[9] = dose: 400.0 mg/kg/injection, schedule: Q04DX003 (ip), vehicle: saline
[10] = dose: 25.0 mg/kg/injection, schedule: Q01DX009 (ip), vehicle: water
[11] = dose: 50.0 mg/kg/injection, schedule: Q01DX009 (ip), vehicle: water
[12] = dose: 100.0 mg/kg/injection, schedule: Q01DX009 (ip), vehicle: water
[13] = dose: 200.0 mg/kg/injection, schedule: Q01DX009 (ip), vehicle: water
[14] = dose: 100.0 mg/kg/injection, schedule: Q04DX003 (ip), vehicle: Klucel (hydroxypropylcellulose) (HPC)
[15] = dose: 200.0 mg/kg/injection, schedule: Q04DX003 (ip), vehicle: Klucel (hydroxypropylcellulose) (HPC)
[16] = dose: 400.0 mg/kg/injection, schedule: Q04DX003 (ip), vehicle: Klucel (hydroxypropylcellulose) (HPC)
[17] = dose: 100.0 mg/kg/injection, schedule: Q01DX001 (ip), vehicle: saline with Tween-80
[18] = dose: 200.0 mg/kg/injection, schedule: Q01DX001 (ip), vehicle: saline with Tween-80
[19] = dose: 400.0 mg/kg/injection, schedule: Q01DX001 (ip), vehicle: saline with Tween-80
[20] = dose: 100.0 mg/kg/injection, schedule: Q01DX009 (ip), vehicle: Klucel (hydroxypropylcellulose) (HPC)
[21] = dose: 200.0 mg/kg/injection, schedule: Q01DX009 (ip), vehicle: Klucel (hydroxypropylcellulose) (HPC)
[22] = dose: 400.0 mg/kg/injection, schedule: Q01DX009 (ip), vehicle: Klucel (hydroxypropylcellulose) (HPC)
[23] = dose: 100.0 mg/kg/injection, schedule: Q04DX003 (ip), vehicle: saline with Tween-80
[24] = dose: 200.0 mg/kg/injection, schedule: Q04DX003 (ip), vehicle: saline with Tween-80
[25] = dose: 100.0 mg/kg/injection, schedule: Q01DX009 (ip), vehicle: saline with Tween-80
[26] = dose: 200.0 mg/kg/injection, schedule: Q01DX009 (ip), vehicle: saline with Tween-80
[27] = dose: 100.0 mg/kg/injection, schedule: Q01DX001 (ip), vehicle: Klucel (hydroxypropylcellulose) (HPC)

Measured: T/C

CC(C)(C)C(=O)CN
inactive: [1] 116 % of control | [2] 101 % of control and 104 % of control | [3] 101 % of control | [4] 119 % of control | [5] 93 % of control and 97 % of control | [6] 109 % of control | [7] 122 % of control | [8] 101 % of control | [9] 93 % of control

CC(O)CNC(=S)c1ccccc1 (stereo not given)
inactive: dose: 100.0 mg/kg/injection, schedule: Q04DX002 (ip), vehicle: saline with Tween-80 101 % of control | dose: 200.0 mg/kg/injection, schedule: Q04DX002 (ip), vehicle: saline with Tween-80 101 % of control

Cc1cc(C)nc(/N=N/c2nc(C)cc(C)n2)n1
inactive: dose: 55.0 mg/kg/injection, schedule: Q01DX Z (ip), vehicle: saline 95 % of control | dose: 83.0 mg/kg/injection, schedule: Q01DX Z (ip), vehicle: saline 91 % of control | dose: 125.0 mg/kg/injection, schedule: Q01DX Z (ip), vehicle: saline 103 % of control

COC1=C(O)C(C(O)CO)OC1=O (stereo not given)
inactive: [10] 103 % of control | [11] 110 % of control | [12] 117 % of control | [13] 101 % of control | dose: 400.0 mg/kg/injection, schedule: Q01DX009 (ip), vehicle: water 108 % of control

COC(=O)C1(N(C)C)c2ccccc2-c2ccccc21
inactive: dose: 100.0 mg/kg/injection, schedule: Q01DX001 (ip), vehicle: carboxymethylcellulose (CMC) 105 % of control

CC(C)SCC(N)CO (stereo not given)
inactive: dose: 12.5 mg/kg/injection, schedule: Q01DX009 (ip), vehicle: water 96 % of control | [10] 96 % of control and 117 % of control | [11] 99 % of control and 120 % of control | [12] 100 % of control and 104 % of control | [13] 108 % of control

Cc1c(C)c2cc(Br)ccc2[nH]c1=O
inactive: dose: 100.0 mg/kg/injection, schedule: Q01DX001 (ip), vehicle: other 103 % of control | dose: 200.0 mg/kg/injection, schedule: Q01DX001 (ip), vehicle: other 97 % of control | dose: 400.0 mg/kg/injection, schedule: Q01DX001 (ip), vehicle: other 97 % of control

N#C/C(=C/c1ccc(O)cc1)C(=O)O
inactive: [14] 96 % of control | [15] 94 % of control | [16] 94 % of control

CS(=O)(=O)OC1C(N=[N+]=[N-])CN(C(=O)c2ccccc2)C1CCOC(=O)c1ccccc1 (stereo not given)
inactive: [17] 102 % of control | [18] 96 % of control | [19] 96 % of control

CCCCSCCOC(=O)Nc1ccc(Cl)cc1
inactive: [20] 103 % of control | [21] 108 % of control | [22] 92 % of control

CCCCCCc1cc[n+](C(=O)c2ccc([N+](=O)[O-])cc2)cc1
inactive: [23] 102 % of control | [24] 104 % of control | dose: 400.0 mg/kg/injection, schedule: Q04DX003 (ip), vehicle: saline with Tween-80 94 % of control

Cc1no[n+]([O-])c1C(=O)N(C)C
inactive: dose: 25.0 mg/kg/injection, schedule: Q04DX002 (ip), vehicle: Klucel (hydroxypropylcellulose) (HPC) 95 % of control | dose: 50.0 mg/kg/injection, schedule: Q04DX002 (ip), vehicle: Klucel (hydroxypropylcellulose) (HPC) 95 % of control | dose: 100.0 mg/kg/injection, schedule: Q04DX002 (ip), vehicle: Klucel (hydroxypropylcellulose) (HPC) 95 % of control

C=C1CC(C)(c2ccc(CCCC(=O)OCC)cc2)OC1=O (stereo not given)
inactive: dose: 50.0 mg/kg/injection, schedule: Q01DX009 (ip), vehicle: saline with Tween-80 102 % of control | [25] 102 % of control | [23] 103 % of control | [26] 88 % of control | [24] 97 % of control

O=c1c(N=Nc2ccc(Cl)cc2)c(O)n(-c2ccccc2Cl)c(=S)n1-c1ccccc1
inactive: dose: 25.0 mg/kg/injection, schedule: Q01DX001 (ip), vehicle: Klucel (hydroxypropylcellulose) (HPC) 92 % of control | dose: 50.0 mg/kg/injection, schedule: Q01DX001 (ip), vehicle: Klucel (hydroxypropylcellulose) (HPC) 94 % of control | [27] 89 % of control

Cc1ccc(C)c(OS(=O)(=O)c2ccc([N+](=O)[O-])cc2)c1
inactive: [20] 98 % of control | [14] 100 % of control | [21] 92 % of control | [15] 91 % of control | [22] 97 % of control | [16] 89 % of control

CCOC(=O)c1ccc(NC(=O)Nc2ccc(OC)c([N+](=O)[O-])c2)cc1
inactive: [25] 95 % of control | [26] 90 % of control

CC1OC1COC1COC2C(OCC3OC3C)COC12 (stereo not given)
inactive: [1] 106 % of control | [4] 106 % of control | [7] 101 % of control

CC(C)(C)C(=O)NCc1ccccc1
inactive: [17] 100 % of control | [18] 96 % of control | [19] 96 % of control

O=Nc1ccc(SCC(=O)NNC(=O)CSc2ccc(N=O)cc2[N+](=O)[O-])cc1
inactive: [23] 93 % of control

O=C1NC(c2ccccc2)(c2ccccc2)C(=O)N1CN1CCN(CN2C(=O)NC(c3ccccc3)(c3ccccc3)C2=O)CC1
inactive: dose: 6.25 mg/kg/injection, schedule: Q01DX009 (ip), vehicle: saline sonified 99 % of control | dose: 12.5 mg/kg/injection, schedule: Q01DX009 (ip), vehicle: saline sonified 100 % of control | dose: 25.0 mg/kg/injection, schedule: Q01DX009 (ip), vehicle: saline sonified 94 % of control | [27] 108 % of control | dose: 200.0 mg/kg/injection, schedule: Q01DX001 (ip), vehicle: Klucel (hydroxypropylcellulose) (HPC) 92 % of control | dose: 400.0 mg/kg/injection, schedule: Q01DX001 (ip), vehicle: Klucel (hydroxypropylcellulose) (HPC) 92 % of control

OC(CNCCc1ccccc1)COc1cccc2ccccc12 (stereo not given)
inactive: dose: 25.0 mg/kg/injection, schedule: Q04DX003 (ip), vehicle: Klucel (hydroxypropylcellulose) (HPC) 97 % of control | dose: 50.0 mg/kg/injection, schedule: Q04DX003 (ip), vehicle: Klucel (hydroxypropylcellulose) (HPC) 95 % of control | [14] 95 % of control

CC(C)CCC1=C(O)c2ccccc2C(=O)C1=O
inactive: dose: 30.0 mg/kg/injection, schedule: Q01DX015 (ip), vehicle: water 100 % of control | dose: 35.0 mg/kg/injection, schedule: Q01DX015 (ip), vehicle: water 106 % of control | dose: 45.0 mg/kg/injection, schedule: Q01DX015 (ip), vehicle: water 95 % of control | dose: 70.0 mg/kg/injection, schedule: Q01DX015 (ip), vehicle: water 103 % of control

O=C(O)C1CC2C3CC(C(=O)O)C(C3)C2C1 (stereo not given)
inactive: [2] 96 % of control | [3] 102 % of control | [5] 101 % of control | [6] 100 % of control | [8] 101 % of control | [9] 96 % of control
